From ChEMBL document CHEMBL3885861, “Open TG-GATES”

Organism: Rattus norvegicus
Experiment: Open TG-GATES - Regimen: Daily Repeat
Type: toxicity, organism-based, Sprague-Dawley
Design: regimen Daily Repeat, gender Male, age 6 weeks
Conditions: in vivo, po, 100 mg/kg, route gavage, dose level High; for APTT / Bas / Eos / Fbg / Hb / Ht / Lym / MCH / MCHC / MCV / Mono / Neu / PT / Plat / RBC / Ret / WBC: tissue Blood; for KIDNEY_L / KIDNEY_R / KIDNEY_TOTAL: tissue Kidney; for LIVER: tissue Liver; for A/G / ALP / ALT / AST / BUN / CRE / Ca / Cl / DBIL / GLC / IP / K / LDH / Na / PL / RALB / TBIL / TC / TG / TP / gamma-GTP: tissue Plasma

## CN(C)CCN(Cc1cccs1)c1ccccn1
72 h, time 3 day
  TERMINAL_BW: 205.4 g
  APTT: 20.1 s
  Bas: 0%
  Eos: 1%
  Fbg: 285.6 mg/dL
  Hb: 13 g/dL
  Ht: 38.7%
  Lym: 75.2%
  MCH: 20.8 pg
  MCHC: 33.7%
  MCV: 61.8 fL
  Mono: 2.2%
  Neu: 20.8%
  PT: 15.9 s
  Plat: 132.3 x10_4/uL
  RBC: 626.8 x10_4/ul
  Ret: 4.7%
  WBC: 84.8 x10_2/uL
  KIDNEY_L: 0.9 g
  KIDNEY_R: 1 g
  KIDNEY_TOTAL: 1.9 g
  LIVER: 10.6 g
  A/G: 1.2
  ALP: 1934 IU/L
  ALT: 61.2 IU/L
  AST: 106.4 IU/L
  BUN: 16.6 mg/dL
  CRE: 0.2 mg/dL
  Ca: 10.9 mg/dL
  Cl: 107 meq/L
  DBIL: 0.01 mg/dL
  GLC: 160.2 mg/dL
  IP: 7.6 mg/dL
  K: 4.4 meq/L
  LDH: 202.2 IU/L
  Na: 142.2 meq/L
  PL: 161.2 mg/dL
  RALB: 2.8 g/dL
  TBIL: 0.028 mg/dL
  TC: 91.8 mg/dL
  TG: 49 mg/dL
  TP: 5.2 g/dL
  gamma-GTP: 2 IU/L
[…], time 7 day
  TERMINAL_BW: 222.8 g
  APTT: 18.6 s
  Bas: 0%
  Eos: 0.6%
  Fbg: 247 mg/dL
  Hb: 14.2 g/dL
  Ht: 42.3%
  Lym: 80.4%
  MCH: 20.5 pg
  MCHC: 33.5%
  MCV: 61.2 fL
  Mono: 2.4%
  Neu: 15.4%
  PT: 15.9 s
  Plat: 123.2 x10_4/uL
  RBC: 691.6 x10_4/ul
  Ret: 3.7%
  WBC: 124.5 x10_2/uL
  KIDNEY_L: 1 g
  KIDNEY_R: 1 g
  KIDNEY_TOTAL: 2 g
  LIVER: 11.6 g
  A/G: 1.1
  ALP: 2330.2 IU/L
  ALT: 145.2 IU/L
  AST: 324.2 IU/L
  BUN: 19 mg/dL
  CRE: 0.2 mg/dL
  Ca: 10.4 mg/dL
  Cl: 107.6 meq/L
  DBIL: 0.094 mg/dL
  GLC: 152.2 mg/dL
  IP: 8.7 mg/dL
  K: 4.6 meq/L
  LDH: 230.6 IU/L
  Na: 144 meq/L
  PL: 179 mg/dL
  RALB: 2.7 g/dL
  TBIL: 0.1 mg/dL
  TC: 100 mg/dL
  TG: 30.2 mg/dL
  TP: 5.2 g/dL
  gamma-GTP: 7 IU/L
[…], time 14 day
  TERMINAL_BW: 237.7 g
  APTT: 21.1 s
  Bas: 0%
  Eos: 0.2%
  Fbg: 177.8 mg/dL
  Hb: 15.1 g/dL
  Ht: 44.1%
  Lym: 74%
  MCH: 19.5 pg
  MCHC: 34.3%
  MCV: 56.9 fL
  Mono: 3.2%
  Neu: 21.4%
  PT: 18.3 s
  Plat: 117.4 x10_4/uL
  RBC: 775 x10_4/ul
  Ret: 2.4%
  WBC: 140.8 x10_2/uL
  KIDNEY_L: 1.1 g
  KIDNEY_R: 1.1 g
  KIDNEY_TOTAL: 2.1 g
  LIVER: 10.6 g
  A/G: 1.1
  ALP: 2530.2 IU/L
  ALT: 69 IU/L
  AST: 237.2 IU/L
  BUN: 16.6 mg/dL
  CRE: 0.2 mg/dL
  Ca: 9.7 mg/dL
  Cl: 106.8 meq/L
  DBIL: 0.3 mg/dL
  GLC: 135.6 mg/dL
  IP: 8.2 mg/dL
  K: 4.1 meq/L
  LDH: 250.8 IU/L
  Na: 141.8 meq/L
  PL: 126.4 mg/dL
  RALB: 2.5 g/dL
  TBIL: 0.3 mg/dL
  TC: 57.4 mg/dL
  TG: 22 mg/dL
  TP: 4.8 g/dL
  gamma-GTP: 6.6 IU/L
[…], time 28 day
  TERMINAL_BW: 237.4 g
  APTT: 24.5 s
  Bas: 0%
  Eos: 0.5%
  Fbg: 140.8 mg/dL
  Hb: 16.7 g/dL
  Ht: 48.9%
  Lym: 53.8%
  MCH: 18.1 pg
  MCHC: 34.1%
  MCV: 53 fL
  Mono: 5%
  Neu: 39.8%
  PT: 20.1 s
  Plat: 79.2 x10_4/uL
  RBC: 924.8 x10_4/ul
  Ret: 2.1%
  WBC: 178.3 x10_2/uL
  KIDNEY_L: 1.1 g
  KIDNEY_R: 1.1 g
  KIDNEY_TOTAL: 2.2 g
  LIVER: 9.7 g
  A/G: 1
  ALP: 1953.8 IU/L
  ALT: 94 IU/L
  AST: 418 IU/L
  BUN: 13.5 mg/dL
  CRE: 0.2 mg/dL
  Ca: 9.1 mg/dL
  Cl: 107.8 meq/L
  DBIL: 1 mg/dL
  GLC: 116.5 mg/dL
  IP: 7.6 mg/dL
  K: 3.9 meq/L
  LDH: 377.5 IU/L
  Na: 140.5 meq/L
  PL: 96.5 mg/dL
  RALB: 2 g/dL
  TBIL: 1 mg/dL
  TC: 38 mg/dL
  TG: 29.8 mg/dL
  TP: 4 g/dL
  gamma-GTP: 15.2 IU/L
